“Also recorded” adds a separate entry of the source. Where two headings read alike, the source gives them in different places.
Key:
isolated rat heart [1] = test system: isolated rat heart
Excerpt: Applying this approach, a perfused isolated heart may be inserted into an 11.5 tesla NMR magnet for spectroscopic analysis of high-energy phosphagens (ATP, phosphocreatine, and inorganic phosphate) in combination with collection of heart effluent and tissue, and functional assessment of contractility can be determined as measured by dP/dtmax and dP/dtmin, left ventricular developed pressure, heart rate, etc.
(§1) A heart, in this case isolated from rat and perfused using the Langendorff method, is image guided by 1 H magnetic resonance imaging and magnetic resonance spectroscopy is performed for ^31P found in the high energy phosphogens ATP, phosphocreatine (PCr), and inorganic phosphate (Pi) in an upright 11.7 Tesla NMR at 161.99 MHz (FIGS. 1 and 2).
(§2) The energetic spectra from the whole heart was averaged every 4 minutes before and after drug exposure. PCr, ATP alpha, beta, and gamma, and Pi peak height and area, and pH calculated from the resonance shift in Pi (pHi=pK+log [(go−gB)/gA−go)] […] Heart contractility (left ventricular pressure) and heart rate is simultaneously acquired on an Emka IOX data acquisition system.
^31P spectra is acquired for 20 minutes prior to drug application. The drug of interest is then applied for 1 hour followed by a 20 minute stress test using 0.1 um isoproteranol (a beta agonist) in the presence of the drug which causes increased contractility, relaxation, heart rate, and increased conduction velocity. This step is done to test the energy reserve of the heart after drug application. […] As a positive control, we use FCCP, a mitochondrial uncoupler that inhibits mitochondrial oxidative phosphorylation by disrupting the mitochondrial protein gradient.

isolated rat heart [2] = test system: isolated rat heart; remark: listed apart in the source
Description: In combination with the functional assessment, whole heart energetics can be determined, measured as the changes in peak levels of ATP, phosphocreatine, and inorganic phosphate using NMR spectroscopy.
as §1, §2
^31P spectra is acquired for 20 minutes prior to drug application. The drug of interest is then applied for 1 hour followed by a 20 minute stress test using 0.1 um isoproteranol (a beta agonist) in the presence of the drug which causes increased contractility, relaxation, heart rate, and increased conduction velocity. This step is done to test the energy reserve of the heart after drug application.

[3] = drug applied for 1 hour, before stress test
[4] = during 20 minute stress test, 0.1 um isoproteranol in the presence of the drug

| contractility (isolated rat heart [1]; doxorubicin 1 and 10 uM) | ATP (isolated rat heart [2]; doxorubicin 1 and 10 uM) | PCr (isolated rat heart [2]; doxorubicin 1 and 10 uM) | Pi (inorganic phosphate) (isolated rat heart [2]; doxorubicin 1 and 10 uM) | effects on contractility and energetic parameters in the stress test period (isolated rat heart [2]; doxorubicin 1 and 10 uM, isoproteranol stress test period) | phosphocreatine (isolated rat heart [2]; stress test with isoproteranol, versus control hearts) | Molecule | contractility (dP/dtmax) (isolated rat heart [1]; [3]) | contractility (isolated rat heart [1]; [4]) | ATPγ peak (isolated rat heart [2]; [3]) | PCr peak (isolated rat heart [2]; [3]) | Pi peak (isolated rat heart [2]; [3]) | ATPγ peak (isolated rat heart [2]; [4]) | PCr peak (isolated rat heart [2]; [4]) | Pi peak (isolated rat heart [2]; [4]) |
| --- | --- | --- | --- | --- | --- | --- | --- | --- | --- | --- | --- | --- | --- | --- |
| increases; also recorded: increasing | decreases | decreases | decreases | pronounced | pronounced drop | COc1cccc2c1C(=O)c1c(O)c3c(c(O)c1C2=O)C[C@@](O)(C(=O)CO)C[C@@H]3O[C@H]1C[C@H](N)[C@H](O)[C@H](C)O1 [doxorubicin] |  |  |  |  |  |  |  |  |
|  |  |  |  |  |  | carbony cyanide 4-(trifluoromethoxy) phenylhydrazone [FCCP] | declines | increased slightly | declines | declines | did not affect | declined further | dropped slightly | no effect |

— US9393324B2, “Use of 31P NMR spectroscopy of whole heart energetics for detection of drug-induced cardiotoxicity” (Battelle Memorial Institute, priority 2012, dated 2016)
